{"source": "ChEMBL document CHEMBL6092220", "about": "(J Med Chem, 2024)", "key": {"[1]": {"biological_target": "T1, Protein cereblon/Signal transducer and activator of transcription 3 (Homo sapiens, UniProt P40763+Q96SW2)", "test": "PROTAC activity at his-SUMO-tagged STAT3 (127 to 688 residues)/CRBN in human HeLa cells assessed as induction of STAT3 degradation incubated for 24 hrs by TECAN SPARK microplate reader analysis", "type": "cell-based"}, "[2]": {"biological_target": "Protein cereblon/Signal transducer and activator of transcription 6 (Homo sapiens) (UniProt P42226+Q96SW2)", "test": "PROTAC activity at STAT6/CRBN in human MOLM16 cells assessed as reduction in STAT6 level incubated for 4 hrs by Western blot analysis", "type": "cell-based"}, "Cytochrome P450 2D6": {"biological_target": "Cytochrome P450 2D6 (Homo sapiens, UniProt P10635)", "test": "Inhibition of CYP2D6 (unknown origin)", "type": "ADME"}, "[3]": {"test": "Drug concentration in female CB17 SCID mouse plasma at 5 mg/kg, iv measured at 6 hrs by LC-MS/MS analysis", "type": "ADME, organism-based"}, "[4]": {"test": "Antitumor activity against human MOLM16 cells xenografted in mouse assessed as tumor growth inhibition at 10 mg/kg, iv", "type": "functional, MOLM-16", "conditions": "read-out: TGI"}, "[5]": {"test": "Stability in mouse plasma assessed as half life", "type": "ADME, cell-free"}, "[6]": {"test": "Drug concentration in female CB17 SCID mouse plasma at 5 mg/kg, iv measured at 1 hr by LC-MS/MS analysis", "type": "ADME, organism-based"}, "hERG (KCNH2) [7]": {"biological_target": "T2, hERG (KCNH2) (Homo sapiens, UniProt Q12809)", "test": "Inhibition of hERG at 30 uM relative to control", "type": "toxicity"}, "[8]": {"biological_target": "T3, Protein cereblon/Signal transducer and activator of transcription 4 (Homo sapiens, UniProt Q96SW2+Q14765)", "test": "PROTAC activity at STAT4/CRBN in human Pfeiffer cells transfected with STAT3 K658R mutant assessed as reduction in STAT4 level upto 40 uM incubated for 20 hrs by Western blot analysis", "type": "cell-based"}, "[9]": {"test": "Drug concentration in female CB17 SCID mouse liver at 5 mg/kg, iv measured at 1 hr by LC-MS/MS analysis", "type": "ADME, organism-based", "conditions": "read-out: Ct"}, "[10]": {"biological_target": "Signal transducer and activator of transcription 3 (Homo sapiens, UniProt P40763)", "test": "Binding affinity to STAT3 (unknown origin) by FP assay"}, "Cytochrome P450 3A4": {"biological_target": "Cytochrome P450 3A4 (Homo sapiens, UniProt P08684)", "test": "Inhibition of CYP3A4 (unknown origin) using midazolam as substrate", "type": "ADME"}, "[11]": {"test": "Stability in human plasma assessed as parent compound remaining at […]", "type": "ADME, cell-free", "conditions": "read-out: Stability"}, "[12]": {"test": "Drug concentration in female CB17 SCID mouse spleen at 5 mg/kg, iv measured at 6 hrs by LC-MS/MS analysis", "type": "ADME, organism-based", "conditions": "read-out: Ct"}, "[13]": {"biological_target": "T3, Protein cereblon/Signal transducer and activator of transcription 4", "test": "PROTAC activity at STAT4/CRBN in human PBMC cells assessed as reduction in STAT4 level incubated for 20 hrs by Western blot analysis", "type": "cell-based"}, "[14]": {"biological_target": "T4, Protein cereblon/Signal transducer and activator of transcription 1-alpha/beta (Homo sapiens, UniProt P42224+Q96SW2)", "test": "PROTAC activity at STAT1/CRBN in human SU-DHL-1 cells assessed as reduction in STAT1 level upto 40 uM incubated for 20 hrs by Western blot analysis", "type": "cell-based"}, "[15]": {"biological_target": "T5, Protein cereblon/Signal transducer and activator of transcription 3 (Mus musculus) (UniProt P42227+Q8C7D2)", "test": "In-vivo PROTAC activity at STAT3/CRBN in female CB17 SCID mouse assessed as reduction STAT3 level liver at 10 mg/kg, iv measured at 72 hrs by Western blot analysis", "type": "functional, organism-based", "design": "scale not given: the % may be the effect or the level left"}, "[16]": {"biological_target": "T5, Protein cereblon/Signal transducer and activator of transcription 3 (Mus musculus)", "test": "In-vivo PROTAC activity at STAT3/CRBN in female CB17 SCID mouse assessed as reduction STAT3 level spleen at 10 mg/kg, iv measured at 24 hrs by Western blot analysis", "type": "functional, organism-based", "design": "scale not given: the % may be the effect or the level left"}, "[17]": {"biological_target": "T5, Protein cereblon/Signal transducer and activator of transcription 3 (Mus musculus)", "test": "In-vivo PROTAC activity at STAT3/CRBN in female CB17 SCID mouse assessed as reduction STAT3 level spleen at 10 mg/kg, iv measured at 72 hrs by Western blot analysis", "type": "functional, organism-based", "design": "scale not given: the % may be the effect or the level left"}, "[18]": {"biological_target": "T4, Protein cereblon/Signal transducer and activator of transcription 1-alpha/beta", "test": "PROTAC activity at STAT1/CRBN in human PBMC cells assessed as reduction in STAT1 level incubated for 20 hrs by Western blot analysis", "type": "cell-based"}, "[19]": {"test": "Stability in Non human primate Hepatocyte assessed as half life", "type": "ADME, cell-based", "conditions": "hepatocytes"}, "[20]": {"test": "Drug concentration in female CB17 SCID mouse spleen at 5 mg/kg, iv measured at 72 hrs by LC-MS/MS analysis", "type": "ADME, organism-based", "conditions": "read-out: Ct"}, "[21]": {"test": "Stability in dog plasma assessed as parent compound remaining at […]", "type": "ADME, cell-free, Canis lupus familiaris", "conditions": "read-out: Stability"}, "[22]": {"biological_target": "Signal transducer and activator of transcription 1-alpha/beta (Homo sapiens) (UniProt P42224)", "test": "Binding affinity to STAT1 (unknown origin) assessed as maximum inhibition by FP assay relative to control"}, "[23]": {"test": "Clearance in ICR mouse at 5 mg/kg, iv", "type": "ADME, organism-based", "conditions": "in vivo"}, "MOLM16": {"test_system": "MOLM16", "test": "PROTAC activity at STAT5/CRBN in human MOLM16 cells assessed as reduction in STAT5 level upto 40 uM incubated for 4 hrs by Western blot analysis", "type": "cell-based"}, "[24]": {"test": "Toxicity in mouse at 5 to 20 mg/kg, iv", "type": "organism-based", "conditions": "in vivo, dose 5-20 mg/kg"}, "[25]": {"test": "Apparent volume of distribution in Beagle dog at 1 mg/kg, iv", "type": "ADME, organism-based, Canis lupus familiaris", "conditions": "in vivo, read-out: Vz"}, "[26]": {"biological_target": "T1, Protein cereblon/Signal transducer and activator of transcription 3", "test": "PROTAC activity at his-SUMO-tagged STAT3 (127 to 688 residues)/CRBN in human PBMC cells assessed as reduction in STAT3 level incubated for 20 hrs by Western blot analysis", "type": "cell-based"}, "[27]": {"test": "Antiproliferative activity against human MOLM16 cells assessed as cell growth inhibition incubated for 4 days by celltiter-glo assay", "type": "functional, cell-based, MOLM-16", "conditions": "MOLM16, 96 h"}, "hERG (KCNH2) [28]": {"biological_target": "T2, hERG (KCNH2)", "test": "Inhibition of hERG at 3 uM relative to control", "type": "toxicity"}, "[29]": {"test": "Drug concentration in female CB17 SCID mouse spleen at 5 mg/kg, iv measured at 24 hrs by LC-MS/MS analysis", "type": "ADME, organism-based", "conditions": "read-out: Ct"}, "[30]": {"test": "Drug concentration in female CB17 SCID mouse liver at 5 mg/kg, iv measured at 24 hrs by LC-MS/MS analysis", "type": "ADME, organism-based", "conditions": "read-out: Ct"}, "[31]": {"test": "Drug concentration in female CB17 SCID mouse plasma at 5 mg/kg, iv measured at 72 hrs by LC-MS/MS analysis", "type": "ADME, organism-based"}, "[32]": {"test": "Drug concentration in female CB17 SCID mouse tumor at 5 mg/kg, iv measured at 6 hrs by LC-MS/MS analysis", "type": "ADME, organism-based, Neoplasm", "conditions": "read-out: Ct"}, "[33]": {"test": "Drug concentration in female CB17 SCID mouse tumor at 5 mg/kg, iv measured at 1 hr by LC-MS/MS analysis", "type": "ADME, organism-based, Neoplasm", "conditions": "read-out: Ct"}, "[34]": {"biological_target": "Protein cereblon/Signal transducer and activator of transcription 5A (Homo sapiens) (UniProt P42229+Q96SW2)", "test": "PROTAC activity at STAT5A/CRBN in human PBMC cells assessed as reduction in STAT5A level upto 40 uM incubated for 20 hrs by Western blot analysis", "type": "cell-based"}}, "note": "pIC50: −log10 of the molar value. Active and inactive are the calls of the source. The calls are words filed in the database; no cut-off is given here.", "data": [{"smiles": "COC(=O)N1CC[C@H]2CC[C@@H](C(=O)N[C@@H](CCC(N)=O)C(=O)N[C@@H](Cc3ccc(F)c(F)c3)C(=O)N3CCC(CCC#Cc4cccc5c4CN(C4CCC(=O)NC4=O)C5=O)CC3)N2C(=O)[C@@H](NC(=O)c2cc3cc(C(F)(F)P(=O)(O)O)ccc3s2)C1", "note": "(stereo partly drawn)", "values": [{"measurement": "DC50", "setting": "[1]", "value": 500, "unit": "nM"}, {"measurement": "Activity", "setting": "[2]", "value": "inactive"}, {"measurement": "pIC50", "setting": "Cytochrome P450 2D6", "value": "< 5.00"}, {"measurement": "concentration at 6 h", "setting": "[3]", "value": 30300, "unit": "ng/mL"}, {"measurement": "inhibition in vivo at 10 mg/kg", "setting": "[4]", "value": 54, "unit": "%"}, {"measurement": "t1/2", "setting": "[5]", "value": "> 2", "unit": "h"}, {"measurement": "concentration at 1 h", "setting": "[6]", "value": 47300, "unit": "ng/mL"}, {"measurement": "inhibition at 30 µM", "setting": "hERG (KCNH2) [7]", "value": 1.1, "unit": "%"}, {"measurement": "Activity", "setting": "[8]", "value": "inactive"}, {"measurement": "concentration at 1 h", "setting": "[9]", "value": 5850, "unit": "ng/g"}, {"measurement": "pIC50", "setting": "[10]", "value": 7.72}, {"measurement": "pIC50", "setting": "Cytochrome P450 3A4", "value": "< 5.00"}, {"measurement": "remaining at 2 h", "setting": "[11]", "value": 75, "unit": "%"}, {"measurement": "concentration at 6 h", "setting": "[12]", "value": 1950, "unit": "ng/g"}, {"measurement": "DC50", "setting": "[13]", "value": 1600, "unit": "nM"}, {"measurement": "Activity", "setting": "[14]", "value": "inactive"}, {"measurement": "Activity", "setting": "[15]", "value": "> 90", "unit": "%"}, {"measurement": "Activity", "setting": "[16]", "value": "> 90", "unit": "%"}, {"measurement": "Activity", "setting": "[17]", "value": "> 90", "unit": "%"}, {"measurement": "DC50", "setting": "[18]", "value": 1600, "unit": "nM"}, {"measurement": "half-life", "setting": "[19]", "value": "> 2", "unit": "h"}, {"measurement": "concentration at 72 h", "setting": "[20]", "value": 568, "unit": "ng/g"}, {"measurement": "remaining at 2 h", "setting": "[21]", "value": 89, "unit": "%"}, {"measurement": "Imax", "setting": "[22]", "value": 100, "unit": "%"}, {"measurement": "clearance", "setting": "[23]", "value": 3.06, "unit": "mL/h/kg"}, {"measurement": "Activity", "setting": "MOLM16", "value": "inactive"}, {"measurement": "Activity", "setting": "[24]", "value": "Non-toxic"}, {"measurement": "Vd", "setting": "[25]", "value": 0.29, "unit": "L/kg"}, {"measurement": "DC50", "setting": "[26]", "value": 0.1, "unit": "nM"}, {"measurement": "Activity", "setting": "[26]; dose 0.1-4000 nM", "value": "Dose-dependent-effect"}, {"measurement": "pIC50", "setting": "[27]", "value": 7.42}, {"measurement": "inhibition at 3 µM", "setting": "hERG (KCNH2) [28]", "value": 1.3, "unit": "%"}, {"measurement": "concentration at 24 h", "setting": "[29]", "value": 868, "unit": "ng/g"}, {"measurement": "concentration at 24 h", "setting": "[30]", "value": 1250, "unit": "ng/g"}, {"measurement": "concentration at 72 h", "setting": "[31]", "value": 8430, "unit": "ng/mL"}, {"measurement": "concentration at 6 h", "setting": "[32]", "value": 3150, "unit": "ng/g"}, {"measurement": "concentration at 1 h", "setting": "[33]", "value": 4810, "unit": "ng/g"}, {"measurement": "Activity", "setting": "[34]", "value": "inactive"}]}]}
